What follows are compounds tested against T1, NDM-1 (Klebsiella pneumoniae, UniProt C7C422) (assay: fluorescence enzyme assay, fluorocillin hydrolysis).
T1 construct: gene blaNDM-1; recombinant, expressed in E. coli
Assay type: biochemical
Source text: fluorescence enzyme assay, fluorocillin hydrolysis on NDM-1

T1 sequence (C7C422 29-270 limits assumed): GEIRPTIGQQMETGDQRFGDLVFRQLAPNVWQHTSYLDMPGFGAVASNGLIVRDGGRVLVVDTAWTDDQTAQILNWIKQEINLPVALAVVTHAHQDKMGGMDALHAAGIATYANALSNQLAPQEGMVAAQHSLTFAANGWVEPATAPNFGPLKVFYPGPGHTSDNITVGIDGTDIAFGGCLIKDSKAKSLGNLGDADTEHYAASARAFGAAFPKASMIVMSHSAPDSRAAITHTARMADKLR

SMILES | IC50 [nM]
C[C@H](CS)C(=O)N1CCN(C(=O)CCc2ccc(O)c(O)c2)C[C@@H]1C(=O)O [compound 3, (R)-4-(3-(3,4-dihydroxyphenyl)propanoyl)-1-((S)-3-mercapto-2-methylpropanoyl)piperazine-2-carboxylic acid] | 130 ± 17
O=C(O)[C@H]1CCCCN1C(=O)C(CS)Cc1cccc(O)c1O (stereo partly drawn) [compound 2, (2R)-1-(2-(2,3-dihydroxybenzyl)-3-mercaptopropanoyl)piperidine-2-carboxylic acid] | 4300 ± 440
COc1cccc(CC(CS)C(=O)N2CCCC[C@@H]2C(=O)O)c1OC (stereo partly drawn) [compound 12, (2R)-1-(2-(2,3-dimethoxybenzyl)-3-mercaptopropanoyl)piperidine-2-carboxylic acid] | 1900 ± 270
COc1ccc(CCC(=O)N2CCN(C(=O)[C@H](C)CS)[C@@H](C(=O)O)C2)cc1OC [compound 18, (R)-4-(3-(3,4-dimethoxyphenyl)propanoyl)-1-((S)-3-mercapto-2-methylpropanoyl)piperazine-2-carboxylic acid] | 220 ± 16
